The results in this text go back to US20220296615A1, “COMBINATION PRODUCT CONTAINING LIMONOID COMPOUND AND SULFONYLUREA COMPOUND” (ZHEJIANG YANGSHENGTANG INSTITUTE OF NATURAL MEDICATION CO., …, priority 2019, published 2022).

Molecules are shown by their SMILES.

What all share (assay type): in vivo
For assay [1], the system named is db/db mice. As to the kind of experiment: Blood glucose and leptin in mouse type II diabetes model, limonoid compound, gliclazide or combination. As to conditions: single administration 0.04 g/kg per day by gavage, two weeks, 1 h after last administration, model group 23.9 ± 4.2, normal 6.0 ± 0.7. The source says: In the present example, db/db mice (line name BKS.Cg-Dock7^m+/+Lepr^db/Nju) were used to perform hypoglycemic efficacy evaluation test of animals (blood glucose level and leptin). The limonoid compound was selected from obacunone, isoobacunoic acid and obacunone glycoside, and gliclazide single administration group, obacunone single administration group, isoobacunoic acid single administration group, obacunone glycoside single administered group, and respective combination thereof with gliclazide administration groups were set. Conditions for experimental feeding: as type II diabetes model mice, 6-week-old SPF-grade db/db mice were purchased from the Nanjing Model Biology Institute, and subjected to experimental feeding after 7 days of preliminary feeding. It should be noted that the conditions for raising the mice were as follows: the temperature was 23±1° C., the humidity was 55±10%, the lights were turned on between 7 am and 7 pm (the lights were turned off at other time), and the mice were allowed to freely take in water and feed. […] The data were expressed as mean and standard deviation. The data before and after were analyzed by t-test, and P<0.05 was considered statistically significant.

Assay [2] concerns STZ mice (type II diabetes with pancreatic islet damage and obesity). As to the kind of experiment: Blood glucose in mouse type II diabetes model with pancreatic islet damage and obesity (STZ + high-fat diet), limonoid compound, glimepiride or combination. As to conditions: STZ + high-fat diet ICR mice, single administration 0.5 g/kg per day by gavage, two weeks, 1 h after last administration; model group 29.6 ± 6.0, normal 5.9 ± 0.54. The source says: In this example, a mouse model of type II diabetes with pancreatic islet damage and obesity was established by multiple modeling ICR mice with a small dose of streptozotocin (STZ), following with continuous high-fat diets (referring to literature: […] Conditions of experimental feeding: ICR mice (20±2 g), aged 6 weeks, purchased from Zhejiang Academy of Medical Sciences, and subjected to experimental feeding after 7 days of preliminary feeding. It should be noted that the conditions for raising the mice were as follows: the temperature was 23±1° C., the humidity was 55±10%, the lights were turned on between 7 am and 7 pm (the lights were turned off at other time), and the mice were allowed to freely take in water and feed. The experimental feed was mouse growth-stable feed (GB […]), and the daily feeding and management of the animals were under the responsibility of the animal security department, which provided the animals with sufficient diet and fresh drinking water daily. […] The data were expressed as mean and standard deviation. The data before and after were analyzed by t-test, and P<0.05 was considered statistically significant.

Assay [3] relates to db/db mice. As to the kind of experiment: Blood glucose and insulin in mouse type II diabetes model, limonoid compound, gliquidone or combination. The following applies: single administration 0.2 g/kg per day by gavage, two weeks. The text has this: In the present embodiment, the limonoid compound was selected from nomilin, deacetylnomilin, nomilin acid, deacetylnomilin acid glycoside, and gliquidone single administration group, nomilin single administration group, deacetylnomilin single administration group, nomilin acid single administered group, deacetylnomilin acid glycoside single administration group, and respective combination thereof with gliquidone administration groups were set.
Conditions for experimental feeding: as type II diabetes model mice, 6-week-old SPF-grade db/db mice were purchased from the Nanjing Model Biology Institute, and subjected to experimental feeding after 7 days of preliminary feeding. It should be noted that the conditions for raising the mice were as follows: the temperature was 23±1° C., the humidity was 55±10%, the lights were turned on between 7 am and 7 pm (the lights were turned off at other time), and the mice were allowed to freely take in water and feed. The experimental feed was mouse growth-stable feed (GB M2118), and the daily feeding and management of the animals were under the responsibility of the animal security department, which provided the animals with sufficient diet and fresh drinking water daily.
Experimental grouping: male db/db mice (20±2 g) were selected, 18 male mice in each group were tested, and drinking bottles were sterilized weekly. […]

The subject of assay [4] is STZ mice (mouse pancreatic islet β-cell injury model). As to the kind of experiment: Blood glucose in mouse pancreatic islet β-cell injury model (STZ), limonoid compound, glibenclamide or combination. The following applies: STZ ICR mice, single administration 0.02 g/kg per day by gavage, two weeks, 1 h after last administration; model group 29.5 ± 4.6, normal 7.5 ± 0.6. The text has this: The limonoid compound was selected from the group consisting of limonin, isolimonic acid, limonin glycoside, and isolimonic acid glycoside, and glibenclamide single administration group, limonin single administration group, isolimonic acid single administration group, limonin glycoside singe administration group, isolimonic acid glycoside singe administration group, and respective combination thereof with glibenclamide administration groups were set. Conditions of experimental feeding: ICR mice (20±2 g), aged 6 weeks, purchased from Zhejiang Academy of Medical Sciences, and subjected to experimental feeding after 7 days of preliminary feeding. It should be noted that the conditions for raising the mice were as follows: the temperature was 23±1° C., the humidity was 55±10%, the lights were turned on between 7 am and 7 pm (the lights were turned off at other time), and the mice were allowed to freely take in water and feed. The experimental feed was mouse growth-stable feed (GB […]), and the daily feeding and management of the animals were under the responsibility of the animal security department, which provided the animals with sufficient diet and fresh drinking water daily. […] The data were expressed as mean and standard deviation. The data before and after were analyzed by t-test, and P<0.05 was considered statistically significant.

Assay [5] has the same test system. As to the kind of experiment: Blood glucose in mouse pancreatic islet β-cell injury model (STZ), limonoid compound, glipizide or combination. The following applies: STZ ICR mice, single administration 0.1 g/kg per day by gavage, two weeks, 1 h after last administration; model group 29.5 ± 4.6, normal 7.5 ± 0.6. The source says:
In this example, a mouse pancreatic islet β-cell injury model was established by modeling ICR mice with streptozotocin (STZ) (Li Nan et al., Protective effect of pine pollen on kidney damage in diabetic nephropathy mice, Science and Technology Review, 2014, 32 (4/5): 95-99), and used to complete the evaluation of hypoglycemic effect in animals (this model could simulate pancreatic islet β-cell damage state of type I and type II diabetics). […]
Gavage doses: the gavage dose was 0.1 g/kg per day for the ichangin group, the gavage dose was 0.1 g/kg per day for the ichangensin group, the gavage dose was 0.1 g/kg per day for the ichangin glycoside group, the gavage dose of glipizide was 0.1 g/kg per day for the glipizide group, ichangin at a dose of 0.05 g/kg and glipizide at a dose of 0.05 g/kg were simultaneously gavaged per day for the ichangin/glipizide combination group, ichangensin at a dose of 0.05 g/kg and glipizide at a dose of 0.05 g/kg were simultaneously gavaged per day for the ichangensin/glipizide combination group, ichangin glycoside at a dose of 0.05 g/kg and glipizide at a dose of 0.05 g/kg were simultaneously gavaged per day for the ichangin glycoside/glipizide combination group, the gavage volume was 10 mL/kg, and the normal group and the model group were administrated with 10 mL/kg of distilled water. […] The data were expressed as mean and standard deviation. […]

On to `Cc1ccc(S(=O)(=O)NC(=O)NN2CC3CCCC3C2)cc1` (stereo not drawn) [Gliclazide, gliclazide], for which, in the assay with db/db mice [1], the Blood glucose value stood at 11.5 ± 2.9 mmol/L.
For the compound `CCC1=C(C)CN(C(=O)NCCc2ccc(S(=O)(=O)NC(=O)N[C@H]3CC[C@H](C)CC3)cc2)C1=O` [Glimepiride, glimepiride], the Blood glucose value in assay [2] is recorded as 10.4 ± 2.1 mmol/L.
As for `COc1ccc2c(c1)C(=O)N(CCc1ccc(S(=O)(=O)NC(=O)NC3CCCCC3)cc1)C(=O)C2(C)C` [gliquidone], the Insulin with db/db mice [3] (serum, ELISA, model group 10.56 ± 3.00, normal 1.05 ± 0.39) was 7.82 ± 1.52 pg/mL. Further, in the assay with db/db mice [3] (1 h after last administration, model group 23.9 ± 4.2, normal 6.0 ± 0.7), the Blood glucose value was 10.3 ± 2.1 mmol/L.
Consider `COc1ccc(Cl)cc1C(=O)NCCc1ccc(S(=O)(=O)NC(=O)NC2CCCCC2)cc1` [Glibenclamide, glibenclamide], for which the Blood glucose value in assay [4] is recorded as 18.3 ± 3.2 mmol/L.
For the compound `Cc1cnc(C(=O)NCCc2ccc(S(=O)(=O)NC(=O)NC3CCCCC3)cc2)cn1` [Glipizide, glipizide], the Blood glucose value in assay [5] was determined as 14.5 ± 2.3 mmol/L.
